Data: patent US20060189539A1, “Novel GnRH analogues with antitumour effects and pharmaceutical compositions thereof” (priority 1994, published 2006)
Entries after “also recorded” stand apart in the source; their conditions may differ.

Columns and labels:
[1] = tested on: Ishikawa human endometrium carcinoma cell line; test: Inhibition of colony formation (dose-survival), Example 18; type: cell-based; settings: for Inhibition of colony formation: 30 to 50 μM
Excerpt: (§1) Human cell lines used in in vitro experiments. MCF-7 human mammary tumour cell line was stabilized in 1973 by Soule et al. from the pleural fluid of mammary carcinoma patients. The cells grow in monolayer and are epithelial in their character. MDA-MB-231 human mammary carcinoma cell line was isolated and stabilized in 1974 by Cailleau et al. similarly from pleural fluid. These cells also grow in monolayer. PC3 human prostate carcinoma cell line was stabilized 20 in 1979 in cell culture by Kaighn et al.; the cells are of simple epithelium type and form compact colonies in clonogenic assays. Ishikawa cell line originated from adenocarcinoma of human endometrium [Nishida et al.: Obstet. Gynecol. Jpn, 37, 25 1103-1111 (1985)], has epithelial character and contains steroid as well as GnRH receptors. Human tumour cell lines are maintained in plastic flasks (Greiner) in Dulbecco-6modified Eagle-MEM (DMEM GIBCO) nutritive medium. The medium used herein contained 10% of fetal calf serum (FCS).
(§2) In the case of cytostatics the cell-damaging effect is not cell-specific. […] One part of the arrested cells again go into the cycle, the other part may perish (apoptosis). […] The investigations were carried out on MCF-7 and MDA-MB-231 human mammary carcinoma cell lines, PC3 human prostate 15 carcinoma cell line and Ishikawa human endometrium carcinoma cell line. Threehundred cells were set into Petri dishes of 3.5 cm in diameter each. The treatment was carried out once, 24 hours following the explantation, then the colonies formed were counted after 9 to 12 days.

[2] = tested on: PC3 human prostate carcinoma cell line; test: as above; type: cell-based; settings: for Inhibition of colony formation: 30 to 50 μM
Excerpt: as §1, §2

[3] = tested on: MCF-7 human mammary carcinoma cells; test: In vitro inhibition of cell proliferation (cell count), Example 19; type: cell-based; settings: 30 μM of active substance, conjugate, treated once, cell count on 7th day
Procedure: (§3) The procedure of treatment was as follows. After trypsinization the cells, 400,000 cells of MCF-7, MDA-MB-231 human mammary carcinoma, PC3 human prostate carcinoma or Ishikawa human endometrium tumour each were passed into Petri dishes of 10 cm in diameter. Starting from the day following transfer, the cells were treated with the substances to be tested in solution prepared with the nutrient medium during the exponential growth phase. The cultures were treated with 1 to 50 μM (calculated for the total volume of the culture) of MI-1544 GnRH antagonist, MI-1892 chicken GnRH antagonist or SJ-1004 GnRH […] on the 7th day.

[4] = tested on: MDA-MB-231 human mammary carcinoma cells; test: as above; type: cell-based; settings: 30 μM of active substance, conjugate, treated once, cell count on 7th day
Procedure: as §3

[5] = tested on: Ishikawa human endometrium tumour cells; settings: 30 μM of active substance, conjugate, treated once
Excerpt: The procedure of treatment was as follows. After trypsinization the cells, 400,000 cells of MCF-7, MDA-MB-231 human mammary carcinoma, PC3 human prostate carcinoma or Ishikawa human endometrium tumour each were passed into Petri dishes of 10 cm in diameter. […]

[6] = tested on: PC3 human prostate carcinoma cells; test: In vitro inhibition of cell proliferation (cell count), Example 19; type: cell-based; settings: 30 μM of active substance, conjugate, treated once
Procedure: The procedure of treatment was as follows. After trypsinization the cells, 400,000 cells of MCF-7, MDA-MB-231 human mammary carcinoma, PC3 human prostate carcinoma or Ishikawa human endometrium tumour each were passed into Petri dishes of 10 cm in diameter. Starting from the day following transfer, the cells were treated with the substances to be tested in solution prepared with the nutrient medium during the exponential growth phase. […]

MCF-7 xenograft = test: In vivo antitumour effect on MCF-7 xenograft; parameters: species or system immunosuppressed CBA/Ca mice; settings: for Influence on the rate of tumour growth: first study, conjugates 150 μg in every 3rd day, P-GFLG-OH daily s.c. corresponding to 50 μg
Procedure: (§4) The immunosuppression of mice was carried out by using the method of Steel et al. (1978).
(§5) CBA/Ca female mice of about 6 weeks old were thymectomized and then, after one week, they were irradiated with 60Co (whole body irradiation; the lethal dose is 9.5 Gray). Within 24 hours 3 to 5×10^5 myelocytes were injected to the animals. Beneath the skin of the immunosuppressed mice 2×10^7 tumour cells or, in the case of later passages, about 2 mm^3 of tumour cells or in the case of later, additional passages about 2 mm^3 of tumour pieces were implanted. […] The treatment with steroid hormone was stopped by at least one week before beginning the investigation.
In the case of MCF-7 tumours (xenografts) the examinations were carried out with passages being in the phase of the 37th and 38th, respectively, transplantations.
In the case of mice bearing MCF-7 xenograft, the treatment was begun in the 4th week following xeno-transplantation.
(§6) Recent investigations have begun on 28 animals bearing MCF-7 xenograft .and on 28 animals bearing MDA-MB-231 xenograft. On animals bearing MCF-7 tumour the treatment was commenced in the 5th week following xeno-transplantation; the tumour volume was 205 to 225 mm^3. On animals bearing MDA-MB-231 tumour, the treatment was started in the 4th week after xeno-transplantation with a tumour volume of 140 to 150 mm^3. […] The control groups were daily treated with physiological saline s.c. (Each treated group consisted of 7 animals.)

MDA-MB-231 xenograft = test: In vivo antitumour effect on MDA-MB-231 xenograft; parameters: species or system immunosuppressed CBA/Ca mice; settings: for Tumour-free animals: end of the 6th week, first series; for Animals from 7 treated that became tumour-free: 6th week of treatment, 100 μg daily s.c.
Procedure: as §4, §5, §6
A more recent study was started on 28 animals bearing. MDA-MB-231 xenograft. The treatment was begun in the 4th or 5th week following xenotransplantation. The tumour volume was 0.165 to 0.194 cm3. […] (For treatment of the control group, see the preceding Examples). Each group consisted of 7 animals.

MXT mouse mammary tumour = test: In vivo antitumour effect on MXT mouse mammary tumour; parameters: species or system CBA/Ca mice; settings: 75 μg/day/animal s.c.; day 17
Procedure: The MXT mouse mammary carcinoma contains ER and PgR proteins; furthermore, it contains also GnRH receptors; therefore, this in vivo tumor model is suitable for studying both the direct and indirect effects. The treatment of mice bearing MXT mammary tumour was commenced on the day following transplantation. […] The animals were daily treated in s.c. route starting from the day following transplantation of MXT mouse mammary tumour. […] MI-1544: 75 μg/day/animal; MI-1892: 75 μg/day/animal.

[7] = Castration effect: uterus weight of xenograft-bearing animals; type: in vivo, mice
B-lymphocytes = test: Humoral immune response (antibody production of B-lymphocytes); type: in vivo, mice; settings: dose not stated
T-lymphocytes = test: Cellular immune response (rosette formation against BRBC antigen); type: in vivo, mice; settings: dose not stated
Excerpt: The immunosuppressive side effect of cytostatics used in tumour therapy is commonly known. This effect can be compensated to a certain grade by various immunostimulants (endotoxin, levamisole). Polypeptides with much […] molecular weights (about 40,000 to 80,000) are also capable of protecting against immunosuppressive effect [Gal et al.: J. Biol. Resp. Modif. 5, 148-159 (1986)). The molecular weight of the novel polyanionic P-GFLG-OH macromolecule tested by us is about 10,000, that of MI-1892 is about 2000, i.e. relatively low; therefore, their immunostimulatory activity was unexpected.

[8] = tested on: MCF-7 human mammary carcinoma cell line; test: Inhibition of colony formation (dose-survival), Example 18; type: cell-based; settings: 50 μM
Excerpt: as §1, §2

[9] = tested on: MDA-MB-231 human mammary carcinoma cell line; test: as above; type: cell-based; settings: 50 μM
Excerpt: as §1, §2

[10] = tested on: MCF-7 human mammary carcinoma cell line; test: Inhibition of colony formation (dose-survival), Example 48; type: cell-based; settings: 10 μM
Excerpt: MCF-7 human mammary carcinoma cell line was stabilized in 1973 by Soule et al. from the pleural fluid of a patient suffering from mammary carcinoma. MDA-MB-231 human mammary carcinoma cell line was isolated and stabilized by Cailleau et al. in 1974 similarly from pleural fluid. Both cell lines grow in monolayer. […] MCF-7 cell line is estradiol receptor (ER)-positive containing proteins specifically binding GnRH. Thus, it represents, a useful model system for investigating the direct effect of GnRH mediated by the GnRH receptor. Being ER-negative and GnRH receptor-positive, MDA-MB-231 cell line is similarly suitable to study the direct effect of GnRH. PC3 human prostate carcinoma cell line was stabilized in cell culture by Kaighn et al. in 1979. The cells are of epithelial type and form compact colonies in clonogenic assays. The Ishikawa cell line originates from human endometrial adenocarcinoma [M. Nishida et al.: Acta Obstet. Gynecol. Jpn. 37, 1103-1111 (1985)], it is epithelial in its character and contains steroid-as well as GnRH receptors. The examination gives accurate information about the cell-damaging effect of the substance tested as a function of varying doses. The treatment was carried out once; the colonies formed from the surviving cells were counted after 8-12 days. […] A part of the arrested cells again entered the cycle, an other part of them might be destroyed (apoptosis). […] The treatment was once carried out 24 hours after setting, then the colonies formed were counted after 8-12 days. The cells were treated once after 24 hours with 1-50 μM of various GnRH analogues of Examples above or with 1-50 μM of GnRH-III, respectively. The percentages of inhibition obtained on MCF-7, MDA-MB-231, PC3 and Ishikawa cells, respectively, together with the dose of the active agent used are shown in Table VIII.

ovulation of female rats = test: Ovulation / cycle of female rats during treatment for three cycles; type: in vivo, rat; settings: high dose of the coupled GnRH-III; three cycles observed
Excerpt: In 1993, researchers isolated and synthesized the Lamprey-III-GnRH decapeptide from lamprey (Petromyzon marinus) (p[…]NH2).
On comparison to healthy individuals, the functioning of the protective mechanism (immunostatus) of patients suffering from tumour is more unfavourable. Since the protective (immune) mechanism is enhanced by the compound, its tumour-inhibiting action can more strongly become valid. […] This effect may particularly be preferred on young patients suffering from mammary tumour, where a castration would cause psychic disturbances. In a way different from other conjugates, P-GFLG-GnRH-III gradually induces an inhibition of continually increasing grade during the long-lasting treatment for 7 weeks; and at the end of treatment, tumour-free animals are observed whereas in the case of other conjugates the degree of inhibition increases only up to the fifth week of treatment, then a stagnation in the grade of inhibition can be observed.

[11] = animals bearing MCF-7 xenografts, treatment for four weeks
[12] = animals bearing MDA-MB-231 xenografts, treatment for twelve weeks

Ac-D-Trp^1,3,D-Cpa^2,{Lys[n-poly(N-vinyl pyrrolidone-co-maleic acid)-Gly-Phe-Leu-Gly-]}5, [a-Asp(DEA)]6, D-Ala10-GnRH [P-GFLG-1892]
% Inhibition of colony formation ([1]; 30 μM): 100% | Inhibition of colony formation [1]: 100% | Inhibition of colony formation [2]: 100% | % Inhibition of cell division [3]: 45% | % Inhibition of cell division [4]: 42% | % Inhibition of cell division [5]: 91% | % Inhibition of cell division [6]: 51% | Inhibition % (MCF-7 xenograft; 1 × 50 μg, week 2): 30% | Influence on the rate of tumour growth (MCF-7 xenograft): not influenced | Tumour volume (MDA-MB-231 xenograft; 1 × 75 μg daily s.c., week 6): 0.33 cm3 | Tumour-free animals (MDA-MB-231 xenograft): A tumour-free animal was found | Tumour volume as control (%) (MXT mouse mammary tumour): 36% | Decrease of uterus weight [7, 11]: 39% | Decrease of uterus weight [7, 12]: 20% | Effect on the humoral immune response (B-lymphocytes): strengthened; also recorded: immunostimulatory effect | Effect on the cellular immune response (activity of T-lymphocytes against BRBC antigen) (T-lymphocytes): increased; also recorded: twofold

Ac-D-Trp1,3,D-Cpa2,{D-Lys[n-poly-(N-vinylpyrrolidone-co-maleic acid)-Gly-Phe-Leu-Gly]}6. D-Ala10-GnRH [P-GFLG-1544]
Inhibition of colony formation [1]: 100% | % Inhibition of colony formation [8]: 100% | % Inhibition of colony formation [9]: 100% | % Inhibition of colony formation ([2]; 10 μM): 100% | % Inhibition of colony formation ([2]; 50 μM): 100% | Inhibition of colony formation [2]: 100% | % Inhibition of cell division [3]: 58% | % Inhibition of cell division [4]: 45% | % Inhibition of cell division [5]: 95% | % Inhibition of cell division [6]: 68.5% | Inhibition % (MCF-7 xenograft; 1 × 50 μg, week 2): 30% | Inhibition % (MCF-7 xenograft; 1 × 50 μg, week 6): 49% | Tumour volume as control (%) (MCF-7 xenograft; 1 × 50 μg, week 6): 51% | Influence on the rate of tumour growth (MCF-7 xenograft): not influenced | Tumour-free animals (MCF-7 xenograft; repeated study, 6th week): a tumour-free animal was found | Tumour volume (MDA-MB-231 xenograft; 1 × 50 μg daily s.c., week 2): 0.21 cm3 | Tumour volume (MDA-MB-231 xenograft; 1 × 50 μg daily s.c., week 3): 0.24 cm3 | Tumour volume as control (%) (MDA-MB-231 xenograft; 1 × 50 μg daily s.c., week 3): 66% | Tumour volume (MDA-MB-231 xenograft; 1 × 50 μg daily s.c., week 6): 0.36 cm3 | Tumour volume as control (%) (MDA-MB-231 xenograft; 1 × 100 μg daily s.c., week 3): 65% | Animals from 7 treated that became tumour-free (MDA-MB-231 xenograft): 1 | Tumour-free animals (MDA-MB-231 xenograft): A tumour-free animal was found | Decrease of uterus weight [7, 11]: 42% | Decrease of uterus weight [7, 12]: 50% | % Inhibition of colony formation [10]: 15%

{Lys[n-poly(N-vinylpyrrolidone-co-maleic acid)-Gly-Phe-Leu-Gly-]}8,-GnRH-III [P-GFLG-GnRH-III]
Tumour volume (MDA-MB-231 xenograft; 1 × 100 μg daily s.c., week 6): 0.40 cm3 | Animals from 7 treated that became tumour-free (MDA-MB-231 xenograft): 2 | Influence on the cycle of female rats (castration effect) (ovulation of female rats): not influenced
